Source: US20260183275A1, “SUBSTITUTED QUINOLONE COMPOUNDS USEFUL AS INHIBITORS OF TLR9” (Bristol-Myers Squibb Company, priority 2022, published 2026)

Legend:
Format in all cases: cell-based
human TLR9 = target: T1, human TLR9 (Homo sapiens, UniProt Q9NR96); experiment: TLR9 inhibition reporter assay (HEK-Blue cells, SEAP reporter); conditions: HEK-Blue cells overexpressing human TLR9; stimulated with ODN2006 5 nM; SEAP read after 22 hour; dose range 0.05 nM-50 μM
T1 construct: host or cells: HEK-Blue cells
T1 sequence (Q9NR96 26-1032): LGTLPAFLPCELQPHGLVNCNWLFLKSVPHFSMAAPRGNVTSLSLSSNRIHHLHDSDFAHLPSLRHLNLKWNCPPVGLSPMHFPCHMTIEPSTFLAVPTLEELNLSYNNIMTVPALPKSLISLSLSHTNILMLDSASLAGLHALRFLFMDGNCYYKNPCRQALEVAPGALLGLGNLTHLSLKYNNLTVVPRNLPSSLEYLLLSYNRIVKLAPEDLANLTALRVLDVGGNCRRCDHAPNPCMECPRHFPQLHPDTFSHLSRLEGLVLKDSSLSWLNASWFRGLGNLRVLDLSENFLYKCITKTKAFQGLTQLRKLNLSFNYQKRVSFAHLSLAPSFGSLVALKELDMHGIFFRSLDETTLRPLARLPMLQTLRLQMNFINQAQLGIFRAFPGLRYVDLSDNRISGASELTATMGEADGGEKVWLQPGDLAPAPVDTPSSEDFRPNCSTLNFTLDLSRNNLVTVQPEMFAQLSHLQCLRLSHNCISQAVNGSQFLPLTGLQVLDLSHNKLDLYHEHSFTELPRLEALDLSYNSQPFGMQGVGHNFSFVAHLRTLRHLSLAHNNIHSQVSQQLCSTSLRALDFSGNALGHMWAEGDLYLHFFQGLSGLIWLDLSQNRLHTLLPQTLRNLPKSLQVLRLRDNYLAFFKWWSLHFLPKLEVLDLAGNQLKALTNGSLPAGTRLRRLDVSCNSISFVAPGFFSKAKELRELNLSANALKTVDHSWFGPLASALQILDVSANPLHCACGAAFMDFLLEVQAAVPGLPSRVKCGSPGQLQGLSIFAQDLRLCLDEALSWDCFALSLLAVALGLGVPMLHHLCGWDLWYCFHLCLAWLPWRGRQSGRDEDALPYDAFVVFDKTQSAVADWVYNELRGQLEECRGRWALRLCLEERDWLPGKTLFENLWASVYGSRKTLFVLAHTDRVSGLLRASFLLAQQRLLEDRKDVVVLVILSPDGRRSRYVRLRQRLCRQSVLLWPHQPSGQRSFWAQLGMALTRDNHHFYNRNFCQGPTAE
Procedure, shortened: (§1)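 HEK-Blue cells with NF-κB/AP-1-driven SEAP pre-treated 30 min with compounds (0.05 nM-50 μM), then stimulated with gardiquimod 7.5 μM (TLR7), R848 15.9 μM (TLR8) or ODN2006 5 nM (TLR9). SEAP read after 22 h at 37° C; % inhibition relative to agonist+DMSO and reference-inhibitor wells.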

human TLR7 = target: T2, human TLR7 (Homo sapiens, UniProt Q9NYK1); experiment: TLR7 inhibition reporter assay (HEK-Blue cells, SEAP reporter); conditions: HEK-Blue cells overexpressing human TLR7; stimulated with gardiquimod 7.5 μM; SEAP read after 22 hour; dose range 0.05 nM-50 μM
T2 construct: host or cells: HEK-Blue cells
T2 sequence (Q9NYK1 27-1049): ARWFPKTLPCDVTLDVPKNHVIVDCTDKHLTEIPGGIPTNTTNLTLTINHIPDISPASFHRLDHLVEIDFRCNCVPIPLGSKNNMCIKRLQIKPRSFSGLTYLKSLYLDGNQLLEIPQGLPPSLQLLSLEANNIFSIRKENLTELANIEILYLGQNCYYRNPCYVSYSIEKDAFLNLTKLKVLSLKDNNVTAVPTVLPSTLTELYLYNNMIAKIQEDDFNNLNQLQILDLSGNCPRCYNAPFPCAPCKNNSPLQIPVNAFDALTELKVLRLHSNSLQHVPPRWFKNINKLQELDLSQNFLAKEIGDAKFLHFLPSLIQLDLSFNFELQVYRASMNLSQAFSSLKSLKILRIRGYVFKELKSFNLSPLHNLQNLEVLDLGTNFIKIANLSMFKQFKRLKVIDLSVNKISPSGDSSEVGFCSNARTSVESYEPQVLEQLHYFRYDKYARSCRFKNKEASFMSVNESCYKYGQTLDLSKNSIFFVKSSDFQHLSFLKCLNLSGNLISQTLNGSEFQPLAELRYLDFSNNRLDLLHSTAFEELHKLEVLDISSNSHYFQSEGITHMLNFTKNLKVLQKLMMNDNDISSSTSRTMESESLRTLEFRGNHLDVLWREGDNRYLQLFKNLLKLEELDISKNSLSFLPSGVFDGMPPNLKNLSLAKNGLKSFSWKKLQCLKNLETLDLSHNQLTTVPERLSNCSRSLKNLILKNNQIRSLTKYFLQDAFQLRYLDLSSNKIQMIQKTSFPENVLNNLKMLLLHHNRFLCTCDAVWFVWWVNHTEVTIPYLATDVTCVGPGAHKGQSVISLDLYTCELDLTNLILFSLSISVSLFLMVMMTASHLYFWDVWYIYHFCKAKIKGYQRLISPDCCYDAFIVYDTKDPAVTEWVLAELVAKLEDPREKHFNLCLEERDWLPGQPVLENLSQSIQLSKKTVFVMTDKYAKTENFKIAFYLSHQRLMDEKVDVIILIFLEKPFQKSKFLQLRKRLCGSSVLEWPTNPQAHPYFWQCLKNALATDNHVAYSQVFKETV
Procedure, shortened: as §1

human TLR8 = target: T3, human TLR8 (Homo sapiens, UniProt Q9NR97); experiment: TLR8 inhibition reporter assay (HEK-Blue cells, SEAP reporter); conditions: HEK-Blue cells overexpressing human TLR8; stimulated with R848 15.9 μM; SEAP read after 22 hour; dose range 0.05 nM-50 μM
T3 construct: host or cells: HEK-Blue cells
T3 sequence (Q9NR97 27-1041): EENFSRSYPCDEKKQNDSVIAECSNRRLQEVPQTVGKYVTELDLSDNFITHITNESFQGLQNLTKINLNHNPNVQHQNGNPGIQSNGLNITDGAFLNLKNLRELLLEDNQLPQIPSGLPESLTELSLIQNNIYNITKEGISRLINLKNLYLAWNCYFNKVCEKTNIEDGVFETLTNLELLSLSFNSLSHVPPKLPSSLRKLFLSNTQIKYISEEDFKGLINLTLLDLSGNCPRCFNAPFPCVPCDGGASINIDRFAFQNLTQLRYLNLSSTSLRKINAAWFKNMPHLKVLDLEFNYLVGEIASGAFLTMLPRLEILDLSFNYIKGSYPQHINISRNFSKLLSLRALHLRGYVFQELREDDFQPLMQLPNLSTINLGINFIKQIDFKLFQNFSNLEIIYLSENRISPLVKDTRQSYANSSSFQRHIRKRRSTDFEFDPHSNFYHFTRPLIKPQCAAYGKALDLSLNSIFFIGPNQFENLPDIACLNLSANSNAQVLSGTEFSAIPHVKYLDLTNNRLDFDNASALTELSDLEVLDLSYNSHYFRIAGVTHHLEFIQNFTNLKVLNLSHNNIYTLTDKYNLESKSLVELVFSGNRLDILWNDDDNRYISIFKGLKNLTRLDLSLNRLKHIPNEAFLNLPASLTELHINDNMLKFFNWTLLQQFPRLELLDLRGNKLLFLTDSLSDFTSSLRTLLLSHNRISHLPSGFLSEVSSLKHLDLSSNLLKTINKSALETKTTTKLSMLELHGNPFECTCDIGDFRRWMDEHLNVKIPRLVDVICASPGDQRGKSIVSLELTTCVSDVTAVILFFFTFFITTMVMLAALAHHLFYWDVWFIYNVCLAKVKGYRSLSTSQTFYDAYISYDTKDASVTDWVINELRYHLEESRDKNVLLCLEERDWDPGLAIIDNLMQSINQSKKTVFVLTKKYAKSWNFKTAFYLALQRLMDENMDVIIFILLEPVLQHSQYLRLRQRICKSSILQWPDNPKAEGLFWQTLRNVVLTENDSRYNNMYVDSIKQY
Procedure, shortened: as §1

Row | Structure (SMILES) | IC50 (human TLR9) | IC50 (human TLR7) | IC50 (human TLR8)
1 | CC(=O)Nc1ccc(-c2cc3cc(-c4ccc(N5CCN(C(C)C)CC5)cc4)ccc3n(C)c2=O)cc1 [Example 57, N-[4-(1-methyl-2-oxo-6-{4-[4-(propan-2-yl)piperazin-1-yl]phenyl}-1,2-dihydroquinolin-3-yl)phenyl]acetamide] | 615 nM | 1220 nM | 83 nM
2 | CC(C)N1CCN(c2ccc(-c3ccc4c(c3)cc(-c3ccccc3)c(=O)n4C)cc2)CC1 [Example 58, 1-methyl-3-phenyl-6-{4-[4-(propan-2-yl)piperazin-1-yl]phenyl}-1,2-dihydroquinolin-2-one] | 538 nM | 32600 nM | 1390 nM
3 | CC(C)N1CCN(c2ccc(-c3ccc4[nH]c(=O)c(-c5ccc(C(=O)N(C)C)cc5)cc4c3)cc2)CC1 [Example 60, N,N-dimethyl-4-(2-oxo-6-{4-[4-(propan-2-yl)piperazin-1-yl]phenyl}-1,2-dihydroquinolin-3-yl)benzamide] | 736 nM | ≥ 50000 nM | ≥ 50000 nM
4 | CC(C)N1CCN(c2ccc(-c3ccc4[nH]c(=O)c(-c5ccc(N6CC[C@@H](O)C6)cc5)cc4c3)cc2)CC1 [Example 61, 3-{4-[(3R)-3-hydroxypyrrolidin-1-yl]phenyl}-6-{4-[4-(propan-2-yl)piperazin-1-yl]phenyl}-1,2-dihydroquinolin-2-one] | 1640 nM | ≥ 50000 nM | ≥ 50000 nM
5 | CC(C)N1CCN(c2ccc(-c3ccc4[nH]c(=O)c(-c5ccc(C(=O)O)cc5)cc4c3)cc2)CC1 [Example 62, 4-(2-oxo-6-{4-[4-(propan-2-yl)piperazin-1-yl]phenyl}-1,2-dihydroquinolin-3-yl)benzoic acid] | 1760 nM | ≥ 50000 nM | ≥ 50000 nM
6 | CCc1c(-c2ccc(OC)c(OC)c2)c(=O)[nH]c2ccc(C3CCN(C4CCN(C(C)C)CC4)CC3)cc12 [Example 63, 3-(3,4-dimethoxyphenyl)-4-ethyl-6-[1′-(propan-2-yl)-[1,4′-bipiperidine]-4-yl]-1,2-dihydroquinolin-2-one] | 27 nM | 2810 nM | 11000 nM
7 | CC(C)N1CCC(N2CCC(c3ccc4[nH]c(=O)c(-c5ccccc5)cc4c3)CC2)CC1 [Example 64, 3-phenyl-6-[1′-(propan-2-yl)-[1,4′-bipiperidine]-4-yl]-1,2-dihydroquinolin-2-one] | 30 nM | 1480 nM | ≥ 50000 nM
8 | CC(C)N1CCC(c2ccc(-c3ccc4[nH]c(=O)c(-c5ccc(S(N)(=O)=O)cc5)cc4c3)cc2)CC1 [Example 65, 4-(2-oxo-6-{4-[1-(propan-2-yl)piperidin-4-yl]phenyl}-1,2-dihydroquinolin-3-yl)benzene-1-sulfonamide] | 55 nM | 342 nM | 4870 nM
9 | CCc1c(-c2ccc(S(C)(=O)=O)cc2)c(=O)[nH]c2ccc(C3CCN(C4CCN(C(C)C)CC4)CC3)cc12 [Example 66, 4-ethyl-3-(4-methanesulfonylphenyl)-6-[1′-(propan-2-yl)-[1,4′-bipiperidine]-4-yl]-1,2-dihydroquinolin-2-one] | 57 nM | 9970 nM | ≥ 50000 nM
10 | CC(C)N1CCC(c2ccc(-c3ccc4[nH]c(=O)c(-c5cccc(NS(C)(=O)=O)c5)cc4c3)cc2)CC1 [Example 67, N-[3-(2-oxo-6-{4-[1-(propan-2-yl)piperidin-4-yl]phenyl}-1,2-dihydroquinolin-3-yl)phenyl]methanesulfonamide] | 67 nM | 817 nM | ≥ 50000 nM
11 | CC(C)N1CCC(c2ccc(-c3ccc4c(c3)cc(-c3ccc(S(C)(=O)=O)cc3)c(=O)n4C)cc2)CC1 [Example 68, 3-(4-methanesulfonylphenyl)-1-methyl-6-{4-[1-(propan-2-yl)piperidin-4-yl]phenyl}-1,2-dihydroquinolin-2-one] | 70 nM | 7960 nM | 475 nM
12 | CC(C)N1CCC(c2ccc(-c3ccc4[nH]c(=O)c(-c5cccc(C#N)c5)cc4c3)cc2)CC1 [Example 69, 3-(2-oxo-6-{4-[1-(propan-2-yl)piperidin-4-yl]phenyl}-1,2-dihydroquinolin-3-yl)benzonitrile] | 75 nM | 538 nM | 17600 nM
13 | CN1CCC(c2ccc(-c3ccc4[nH]c(=O)c(-c5ccc(NS(C)(=O)=O)cc5)cc4c3)cc2)CC1 [Example 70, N-(4-{6-[4-(1-methylpiperidin-4-yl)phenyl]-2-oxo-1,2-dihydroquinolin-3-yl}phenyl)methanesulfonamide] | 78 nM | 204 nM | ≥ 50000 nM
14 | CC(C)N1CCC(c2ccc(-c3ccc4[nH]c(=O)c(-c5ccc(S(C)(=O)=O)cc5)cc4c3)cc2)CC1 [Example 71, 3-(4-methanesulfonylphenyl)-6-{4-[1-(propan-2-yl)piperidin-4-yl]phenyl}-1,2-dihydroquinolin-2-one] | 140 nM | 29900 nM | 9280 nM
